The text below walks through data of patent publication US11254652B2, “Crystalline forms of N-(4-(4-(cyclopropymethyl)piperazine-1-carbonyl)phenyl)quinoline-8-sulfonamide” (Agios Pharmaceuticals, Inc., priority 2017, dated 2022).

Assay type in all cases: physicochemical
Data set [1] can be described thus: Solubility in water and simulated fluids at 37° C. (slurry, HPLC; XRPD of residual solid). The conditions noted are these: values based on hemi-sulfate sesqui-hydrate salt; for solubility at 1 h / solubility at 2 days: 37 °C, thermodynamic from solid; for solubility at 1 h: slurry time 1 hr. The procedure:
Solubility of Patterns A, B and D were measured in water. The solids were slurried in the fluids for two days and at 37° C. The supernatant was syringe filtered and used for HPLC analysis. For Patterns A and D the solubility measurement was repeated and the sample was taken after 1 hr slurry. A calibration curve was developed using Pattern A. This was not assay corrected and therefore the solubility values are based on the hemi-sulfate, sesqui-hydrate salt.
Both Patterns B and D converted to Pattern A after two days slurry. Pattern D also converted to Pattern A within 1 hour slurry in Fasted state simulated gastric fluid (FaSSGF) or water. […] This could be because of the conversion of Patterns B and D to Pattern A. The solubility data and the resulting XRPD Pattern after the measurement are reported in Table 21.

Data set [2] is described as follows: Dynamic Vapor Sorption (DVS). The procedure: Dynamic Vapor Sorption (DVS) was done using a DVS Intrinsic 1. The sample is loaded into a sample pan and suspended from a microbalance. A typical sample mass for DVS measurement is 25 mg. Nitrogen gas bubbled through distilled water provides the desired relative humidity. A typical measurement comprises the steps: • 1. Equilibrate at 50% RH • 2. 50% to 2%. (50%, 40%, 30%, 20%, 10% and 2%) • a. Hold minimum of 5 mins and maximum of 60 minutes at each humidity. The pass criteria is less than 0.002% change • 3. 2% to 95% (2%, 10%, 20%, 30%, 40%, 50%, 60%, 70%, 80%, 90%, 95%) • b. Hold minimum of 5 mins and maximum of 60 minutes at each humidity. The pass criteria is less than 0.002% change • 4. 95% to 2% (95%, 80%, 70%, 60%, 50%, 40%, 30%, 20%, 10%, 2%) • c. Hold minimum of 5 mins and maximum of 60 minutes at each humidity. The pass criteria is less than 0.002% change • 5. 2% to 50% (2%, 10%, 20%, 30%, 40%, 50%) • d. Hold minimum of 5 mins and maximum of 60 minutes at each humidity. The pass criteria is less than 0.002% change
(§1) The water content by Karl Fisher was about 5.3%. […] A DVS isotherm taken at 40° C. was essentially the same as the one at 25° C. […] Humidity test was conducted on Form A with exposure to 11%, 48%, and 75% relative humidity at 40° C. for 2 weeks followed by XRPD analysis. […] Crystallographic data for Form A is as follows:
Form B tends to hold substantial amount of solvent.
(§2) Form D was determined to be anhydrous with a melting peak at 239° C. See e.g., FIG. 9. DVS of Pattern D was performed and solid picked up about 2% moisture from 2% to 95% relative humidity.

Data set [3] is described as follows: Humidity / desiccant exposure test followed by XRPD analysis. The conditions noted are these: for XRPD after exposure to phosphorus pentoxide (P2O5) granules: one week. The procedure: FIG. 5 (i) depicts X-ray powder diffraction pattern (XRPD) overlay for crystalline hemisulfate salt Form A and after exposure to 11%, 48%, and 75% relative humidity and 40° C. for two weeks. […] FIG. 5 (ii) depicts XRPD overlay for crystalline hemisulfate salt Form A and after exposure to phosphorus pentoxide (P2O5) granules at room temperature and 50° C. for one week, as well as ambient temperature in a vial for 24 hrs.
as §1, §2

Molecules are shown by their SMILES.

For `O=C(c1ccc(NS(=O)(=O)c2cccc3cccnc23)cc1)N1CCN(CC2CC2)CC1` [Form A, 1-(cyclopropylmethyl)-4-(4-(quinoline-8-sulfonamido)benzoyl)piperazin-1-ium hemisulfate sesquihydrate], the solubility at 1 h in data set [1] (FaSSGF, fassgf or other biorelevant) was 7070 µg/mL; in data set [1] (water) it was 3050 µg/mL. Further, the solubility at 2 days in data set [1] (FaSSGF, fassgf or other biorelevant, slurry time 2 days) is 6800 µg/mL; in data set [1] (water, slurry time 2 days) it was 2690 µg/mL. Further, the Solubility in data set [1] (FaSSIF, slurry time 2 days, hemisulfate sesquihydrate) is listed as 0.24 mg Solid/mL solvent. Further, the “moisture picked up in DVS” value in data set [2] (25° C., from 2% to 95% relative humidity) was “about 1.3%”. In addition, the “XRPD after DVS” value in data set [2] (Form A: DVS at 25° C. and 40° C., hemisulfate sesquihydrate) is listed as “remained unchanged”. Also, in data set [3] (11%, 48%, and 75% relative humidity at 40° C. for 2 weeks), the “XRPD after humidity test” value is “remained unchanged”. For the same molecule, the “XRPD after exposure to phosphorus pentoxide (P2O5) granules” value in data set [3] (50° C.) is “slightly shifted”; in data set [3] (room temperature), “no change”. The “XRPD peaks after P2O5 at 50° C. then exposure to ambient” value in data set [3] (ambient for 24 hrs, changes reversible) was “shifted back to original positions”.
